Source: patent US10487083B2, “Small molecule inhibitors of the JAK family of kinases” (Janssen Pharmaceutica NV, priority 2016, dated 2019)
Each block holds one compound with its values, some of them ahead of it.

Columns and labels:
[1] = Physical stability of crystalline embodiments of compound Ex. 1 (HT-XRPD/HR-XRPD after exposure); type: physicochemical; conditions: for physical stability after exposure to AAC: AAC 40° C./70% RH, two days; for physical stability in climate chamber: four days, HR-XRPD
Method: Long term slurry experiments were performed by suspending compound embodiment 1s in twenty neat solvents and stirred at room temperature for two weeks and at 50° C. for one week. Upon completion of the equilibration time, the residual solids were separated from the mother liquors. The solids were dried under ambient conditions and dried under vacuum (5 mBar) before being analyzed by HT-XRPD. Subsequently, the solids were exposed to accelerated aging conditions (40° C./70% relative humidity) for two days and again analyzed by HT-XRPD.
Embodiment 1s converted to hydrated embodiment 10 when it was exposed to 100% RH at 25° C. […] This behavior is attributable to an unequally strong binding of all the hydration/solvation molecules. In this case, embodiment 10 would have a less strongly bound second water molecule that would be lost under ambient conditions. More precisely, the physical stability of embodiment 1s was investigated in climate chambers by exposing a 20 mg sample of such embodiment to 40° C. and 70% relative humidity for four days, and another 20 mg sample of the same embodiment was exposed also for four days to 25° C. and 100% relative humidity. After four days, the various solid samples were analyzed by HR-XRPD, the crystal cell parameters were determined and the diffractograms were indexed. From bottom to top, the first diffractogram in FIG. 6 corresponds to embodiment 1s as starting material, and the second corresponds to the same form after a 4-day exposure to 40° C. and 70% relative humidity, noted as “1s 70 RH” in the same figure. […] Indexing for such form was not possible due to the small amount in which it was present. The third diffractogram corresponds to embodiment 1s after a 4-day exposure to 25° C. and 100% relative humidity, noted as “10” in the same figure. […] Upon dehydration, both embodiments is and 10 re-crystallized to the anhydrous form with a melting point of 148° C.

[2] = In vivo intracolonic (i.c.) dosing, plasma and colon concentrations (Protocol 3); parameters: species or system C57BL/6 mice; key to Plasma Concentration After i.c. Dosing, Mean: ^: Mean was not calculated as the values for all three mice were below the lower limit of quantitation; conditions: for Plasma Concentration After i.c. Dosing, Mean: 5 mg/kg intracolonic, female C57BL/6 mice; for systemic exposure after i.c. dosing: mice
Description: Plasma and colon concentration results were obtained by following Protocol 1 using venipuncture of dorsal metatarsal vein bleed for Compounds (B), (C), and Examples 6 and 11. Plasma and colon concentration results were obtained by following Protocol 2 using retro-orbital bleed for Compounds (A), and Examples 1, and 3-5 and Protocol 2 using venipuncture of the dorsal metatarsal vein for Examples 2, 7-10, and 12. Plasma and colon concentration results were obtained by following Protocol 3 for Examples 1, 3 and 4. These protocols are described below under the heading In vivo Studies.
Intracolonic (IC) dose group: Following anesthesia with isoflurane by inhalation, three non-fasted female C57BL/6 mice were administered the compound intracolonically through a small incision in the abdominal wall using a syringe and needle at a dose of 5 mg/kg as a solution in 20% HPβCD at a dose volume of 1 mL/kg. Blood samples were collected at 0.5, 2, and 4 h post dose via retro-orbital bleed. Blood samples were collected into tubes containing anticoagulant (Heparin-Na) and placed on wet ice. The plasma fraction was separated by centrifugation and frozen at −20° C. for up to 4 h and −80° C. after 4 h unless analyzed shortly after sample collection. Colon samples were collected at 4 h post dose. From 2 cm below the cecum, a 4-cm sample of the colon was dissected, cut open on the longitudinal axis, and the solid contents removed by flushing with 2 mL of saline. The colon was further washed by putting it in 5 mL of saline and shaken for 5 seconds. The colon sample was then patted dry, weighed, and homogenized as 1 part tissue (g) to 4 parts HPLC grade water (mL). Concentrations of the compound in plasma and colon homogenate were determined using a qualified liquid chromatography-triple quadrupole mass spectrometry (LC-MS/MS) method. This protocol was used to evaluate IC dosing of the following test compounds: Examples 1, 3, and 4.

[3] = In vivo oral (p.o.) dosing, plasma and colon concentrations (Protocols 1 and 2); conditions: 25 mg/kg p.o., female C57BL/6 mice
Method: These protocols are described below under the heading In vivo Studies.
Three non-fasted female C57BL/6 mice were orally administered test compound at a dose of 25 mg/kg p.o. as a solution in 20% hydroxypropyl-beta-cyclodextrin (HPβCD) at a dose volume of 5 mL/kg. Blood samples were collected at 0.5, 2, and 4 h post dose via retro-orbital bleed or venipuncture of the dorsal metatarsal vein. Blood samples were collected into tubes containing anticoagulant (Heparin-Na) and placed on wet ice. The plasma fraction was separated by centrifugation and frozen at −20° C. for up to 4 h and −80° C. after 4 h unless analyzed shortly after sample collection. Colon samples were collected at 4 h post dose. […] Concentrations of the compound in plasma and colon homogenate were determined using a qualified liquid chromatography-triple quadrupole mass spectrometry (LC-MS/MS) method.
Three non-fasted female C57BL/6 mice were orally administered test compound at a dose of 25 mg/kg p.o. as a solution in 20% HPβCD at a dose volume of 5 mL/kg. […] The plasma fraction was separated by centrifugation and frozen at −20° C. for up to 4 h and −80° C. after 4 h unless analyzed shortly after sample collection. […] Concentrations of the compound in plasma and colon homogenate were determined using a qualified liquid chromatography-triple quadrupole mass spectrometry (LC-MS/MS) method.

[4] = MDCK-MDR1 permeability assay; type: in vitro ADME; conditions: MDCK-MDR1, pH 7.4; @ 5 μM, with P-gp inhibitor elacridar (2 μM); read-out: MDCK-MDR1 P^eapp(A-B)
Method: Permeability measurements were conducted according to the Cyprotex protocol using the MDCK-MDR1 cell line obtained from the NIH (Rockville, Md., USA). […] The cells in this assay form a cohesive sheet of a single cell layer filing the surface area of the culture dish, also known as a confluent monolayer, and on day four the test compound was added to the apical side of the membrane and the transport of the compound across the monolayer was monitored over a time period of 60 min.
Test compounds were dissolved in DMSO at a concentration of 10 mM. The dosing solutions were prepared by diluting test compound with assay buffer (Hanks Balanced Salt Solution), pH 7.4, at a final concentration of 5 μM. For assessment of apical to basolateral (“A-B”) permeability, buffer was removed from the apical compartment and replaced with test compound dosing solution with or without the permeability glycoprotein (“PgP”, “P-gP”, “Pgp” or “P-gp”) inhibitor elacridar (2 μM). For assessment of basolateral to apical (“B-A”) permeability, buffer was removed from the companion plate and replaced with test compound dosing solution. […] The permeability coefficient (Papp) for each compound was calculated from the following equation: Papp=(dQ/dt)/(C0×S), where dQ/dt is the rate of permeation of the drug across the cells, C0 is the donor compartment concentration at time zero, and S is the area of the cell monolayer. […]

- physical stability after exposure to AAC [1]: stable solid form
SMILES: CC(C)(O)CNC(=O)Cc1nc2cnc3[nH]ccc3c2n1[C@H]1CC[C@H](CC#N)CC1 [Embodiment 6]

- Plasma Concentration After i.c. Dosing, Mean ([2]; Time = 2 h): ^
- Plasma Concentration After i.c. Dosing, Mean ([2]; Time = 4 h): ^
- systemic exposure after i.c. dosing [2]: low systemic exposures
SMILES: N#CC[C@H]1CC[C@H](n2c(CC(=O)NCC3CC3)nc3cnc4[nH]ccc4c32)CC1 [Ex. 3, 2-(1-((1r,4r)-4-(Cyanomethyl)cyclohexyl)-1,6-dihydroimidazo[4,5-d]pyrrolo[2,3-b]pyridin-2-yl)-N-(cyclopropylmethyl)acetamide]

- physical stability under ambient conditions [1]: physically not stable
SMILES: CC(C)(O)CNC(=O)Cc1nc2cnc3[nH]ccc3c2n1[C@H]1CC[C@H](CC#N)CC1 [embodiment 10]

- physical stability in climate chamber ([1]; 40° C. and 70% relative humidity): initial embodiment 1s had been recovered
SMILES: CC(C)(O)CNC(=O)Cc1nc2cnc3[nH]ccc3c2n1[C@H]1CC[C@H](CC#N)CC1 [embodiment 1s]
- physical stability in climate chamber ([1]; 25° C. and 100% relative humidity): conversion of embodiment 1s into embodiment 10

- physical stability under ambient conditions [1]: did not appear to be physically stable
SMILES: CC(C)(O)CNC(=O)Cc1nc2cnc3[nH]ccc3c2n1[C@H]1CC[C@H](CC#N)CC1 [Embodiment 4]

- Plasma Concentration After p.o. Dosing, Mean ([3]; Time = 2 h): ^
- Plasma Concentration After p.o. Dosing, Mean ([3]; Time = 4 h): ^
SMILES: N#CC[C@H]1CC[C@H](n2c(CC(=O)Nc3cc[nH]n3)nc3cnc4[nH]ccc4c32)CC1 [Ex. 11, 2-(1-((1r,4r)-4-(Cyanomethyl)cyclohexyl)-1,6-dihydroimidazo[4,5-d]pyrrolo[2,3-b]pyridin-2-yl)-N-(1H-pyrazol-3-yl)acetamide]

- physical stability after exposure to AAC [1]: physically stable
SMILES: CC(C)(O)CNC(=O)Cc1nc2cnc3[nH]ccc3c2n1[C@H]1CC[C@H](CC#N)CC1 [Embodiment 7]

- Plasma Concentration After i.c. Dosing, Mean ([2]; Time = 2 h): ^
- Plasma Concentration After i.c. Dosing, Mean ([2]; Time = 4 h): ^
- systemic exposure after i.c. dosing [2]: low systemic exposures
SMILES: CC(C)(O)CNC(=O)Cc1nc2cnc3[nH]ccc3c2n1[C@H]1CC[C@H](CC#N)CC1 [Ex. 1, 2-(1-((1r,4r)-4-(Cyanomethyl)cyclohexyl)-1,6-dihydroimidazo[4,5-d]pyrrolo[2,3-b]pyridin-2-yl)-N-(2-hydroxy-2-methylpropyl)acetamide]

- Papp A→B [4]: 2.5 ×10⁻⁶ cm/s
SMILES: C[C@@H](O)c1nc2cnc3[nH]ccc3c2n1[C@H]1CC[C@H](CC#N)CC1 [C]

- physical stability after exposure to AAC [1]: physically unstable
SMILES: CC(C)(O)CNC(=O)Cc1nc2cnc3[nH]ccc3c2n1[C@H]1CC[C@H](CC#N)CC1 [Embodiment 5]

- Plasma Concentration After i.c. Dosing, Mean ([2]; Time = 4 h): ^
- systemic exposure after i.c. dosing [2]: low systemic exposures
SMILES: N#CCCNC(=O)Cc1nc2cnc3[nH]ccc3c2n1[C@H]1CC[C@H](CC#N)CC1 [Ex. 4, N-(2-Cyanoethyl)-2-(1-((1r,4r)-4-(cyanomethyl)cyclohexyl)-1,6-dihydroimidazo[4,5-d]pyrrolo[2,3-b]pyridin-2-yl)acetamide]

- physical stability after exposure to AAC [1]: converted to embodiment 3e
SMILES: CC(C)(O)CNC(=O)Cc1nc2cnc3[nH]ccc3c2n1[C@H]1CC[C@H](CC#N)CC1 [embodiment 2]
